Assay results: patent US12516039B2, “N-linked isoquinoline amides as LRRK2 inhibitors, pharmaceutical compositions, and uses thereof” (Merck Sharp & Dohme LLC, priority 2020, dated 2026)

Target: T1, GST-tagged truncated human mutant G2019S LRRK2 (Homo sapiens, UniProt Q5S007, G2019S)
T1 construct: GST-tagged truncated human mutant G2019S LRRK2; purchased Life Technologies Corporation (Carlsbad, CA)
Test: LRRK2 G2019S Km ATP LanthaScreen assay
Type: biochemical
Settings: 134 μM ATP (Km ATP), LRRKtide substrate, mean of several tests, read-out: LRRK2 pIC50 (converted)
Outline: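 GST-tagged truncated human LRRK2 G2019S (1.25 nM enzyme solution) was preincubated 15 min with compound, then reacted 90 min at ambient temperature with fluorescein-LRRKtide (400 nM solution) and 134 μM ATP (Km) in Tris pH 8.5. EDTA stop; Tb anti-phospho-LRRKtide TR-FRET (520/495 ratio). IC50 from 4-parameter fits, mean of several runs.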

T1 sequence (Q5S007 970-2527 G2019S limits assumed): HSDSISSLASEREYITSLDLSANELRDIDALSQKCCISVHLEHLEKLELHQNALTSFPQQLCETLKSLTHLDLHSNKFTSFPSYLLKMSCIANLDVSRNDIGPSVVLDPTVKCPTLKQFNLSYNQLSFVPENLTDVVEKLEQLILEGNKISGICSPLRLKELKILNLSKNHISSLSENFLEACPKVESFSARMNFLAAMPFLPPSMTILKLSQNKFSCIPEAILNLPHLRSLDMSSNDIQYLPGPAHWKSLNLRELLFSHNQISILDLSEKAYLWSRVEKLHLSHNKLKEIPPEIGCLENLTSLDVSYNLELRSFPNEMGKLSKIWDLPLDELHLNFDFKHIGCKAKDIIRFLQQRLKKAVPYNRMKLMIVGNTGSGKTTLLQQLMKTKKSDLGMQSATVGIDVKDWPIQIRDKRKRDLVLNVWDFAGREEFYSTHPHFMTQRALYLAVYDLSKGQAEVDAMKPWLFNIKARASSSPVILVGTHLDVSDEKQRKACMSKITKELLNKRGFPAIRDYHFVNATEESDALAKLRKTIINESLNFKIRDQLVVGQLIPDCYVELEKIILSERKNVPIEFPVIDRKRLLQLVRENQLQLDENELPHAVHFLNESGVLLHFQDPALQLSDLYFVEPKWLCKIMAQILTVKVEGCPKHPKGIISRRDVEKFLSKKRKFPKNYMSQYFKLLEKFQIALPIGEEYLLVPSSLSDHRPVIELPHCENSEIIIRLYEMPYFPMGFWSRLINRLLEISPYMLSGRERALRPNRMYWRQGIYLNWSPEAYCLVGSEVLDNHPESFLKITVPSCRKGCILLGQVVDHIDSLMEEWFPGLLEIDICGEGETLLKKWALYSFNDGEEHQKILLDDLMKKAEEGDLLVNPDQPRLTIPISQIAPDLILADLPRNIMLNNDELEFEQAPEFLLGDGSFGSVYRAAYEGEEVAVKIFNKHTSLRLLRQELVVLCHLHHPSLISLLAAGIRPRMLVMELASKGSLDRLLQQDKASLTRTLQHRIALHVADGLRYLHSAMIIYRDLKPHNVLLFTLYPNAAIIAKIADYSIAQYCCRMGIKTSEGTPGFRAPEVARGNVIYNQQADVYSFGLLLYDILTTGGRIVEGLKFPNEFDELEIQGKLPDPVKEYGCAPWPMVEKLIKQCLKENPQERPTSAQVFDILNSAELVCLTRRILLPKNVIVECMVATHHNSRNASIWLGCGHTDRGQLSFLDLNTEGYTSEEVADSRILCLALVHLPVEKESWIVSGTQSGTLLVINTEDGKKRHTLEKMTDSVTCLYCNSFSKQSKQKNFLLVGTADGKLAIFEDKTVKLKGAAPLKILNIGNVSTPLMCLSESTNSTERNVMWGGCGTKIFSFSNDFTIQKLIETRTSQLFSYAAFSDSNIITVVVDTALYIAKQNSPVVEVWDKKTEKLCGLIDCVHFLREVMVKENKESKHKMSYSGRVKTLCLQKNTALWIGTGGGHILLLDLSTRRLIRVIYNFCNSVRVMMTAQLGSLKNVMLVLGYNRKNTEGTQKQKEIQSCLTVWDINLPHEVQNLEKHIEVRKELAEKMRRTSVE

Compound: Cc1cc2cnc(NC(=O)C3CC34CCOC4)cc2cc1N1CCN(C2(C)COCC2O)CC1 (single isomer, unassigned) [Ex-6.2, (1R, 3S or 1S,3R, or 1R,3S, or 1S,3S)-N-(6-(4-((3R, 4R or 3S,4S)-4-hydroxy-3-methyltetrahydrofuran-3-yl)piperazin-1-yl)-7-methylisoquinolin-3-yl)-5-oxaspiro[2.4]heptane-1-carboxamide]
- IC50: 1.38 nM

Compound: Cc1cc2cnc(NC(=O)C3CC34CCOC4)cc2cc1N1CCN(C2(C)COCC2O)CC1 (single isomer, unassigned) [Ex-6.3, (1R, 3S or 1S,3R, or 1R,3S, or 1S,3S)-N-(6-(4-((3R, 4R or 3S,4S)-4-hydroxy-3-methyltetrahydrofuran-3-yl)piperazin-1-yl)-7-methylisoquinolin-3-yl)-5-oxaspiro[2.4]heptane-1-carboxamide]
- IC50: 0.832 nM

Compound: Cc1cc2cnc(NC(=O)C3CC34CCOC4)cc2cc1N1CCN(C2(C)COCC2O)CC1 (single isomer, unassigned) [Ex-6.4, (1R, 3S or 1S,3R, or 1R,3S, or 1S,3S)-N-(6-(4-((3R, 4R or 3S,4S)-4-hydroxy-3-methyltetrahydrofuran-3-yl)piperazin-1-yl)-7-methylisoquinolin-3-yl)-5-oxaspiro[2.4]heptane-1-carboxamide]
- IC50: 1.07 nM

Compound: Cc1cc2cnc(NC(=O)C3CC34CCOC4)cc2cc1N1CCN(C2(C)COCC2O)CC1 (single isomer, unassigned) [Ex-6.5, (1R, 3S or 1S,3R, or 1R,3S, or 1S,3S)-N-(6-(4-((3R, 4R or 3S,4S)-4-hydroxy-3-methyltetrahydrofuran-3-yl)piperazin-1-yl)-7-methylisoquinolin-3-yl)-5-oxaspiro[2.4]heptane-1-carboxamide]
- IC50: 1.05 nM

Compound: Cc1cc2cnc(NC(=O)C3CC34CCOC4)cc2cc1N1CCN(C2(C)COCC2O)CC1 (single isomer, unassigned) [Ex-6.6, (1R, 3S or 1S,3R, or 1R,3S, or 1S,3S)-N-(6-(4-((3R, 4R or 3S,4S)-4-hydroxy-3-methyltetrahydrofuran-3-yl)piperazin-1-yl)-7-methylisoquinolin-3-yl)-5-oxaspiro[2.4]heptane-1-carboxamide]
- IC50: 45.7 nM

Compound: Cc1cc2cnc(NC(=O)C3CC34CCOC4)cc2cc1N1CCN(C2(C)COCC2O)CC1 (single isomer, unassigned) [Ex-6.7, (1R, 3S or 1S,3R, or 1R,3S, or 1S,3S)-N-(6-(4-((3R, 4R or 3S,4S)-4-hydroxy-3-methyltetrahydrofuran-3-yl)piperazin-1-yl)-7-methylisoquinolin-3-yl)-5-oxaspiro[2.4]heptane-1-carboxamide]
- IC50: 126 nM

Compound: Cc1cc2cnc(NC(=O)C3CC34CCOC4)cc2cc1N1CCN(C2(C)COCC2O)CC1 (single isomer, unassigned) [Ex-6.8, (1R, 3S or 1S,3R, or 1R,3S, or 1S,3S)-N-(6-(4-((3R, 4R or 3S,4S)-4-hydroxy-3-methyltetrahydrofuran-3-yl)piperazin-1-yl)-7-methylisoquinolin-3-yl)-5-oxaspiro[2.4]heptane-1-carboxamide]
- IC50: 631 nM

Compound: Cc1cc2cnc(NC(=O)C3CC34CCOC4)cc2cc1N1CCN(C2(C)COCC2O)CC1 (single isomer, unassigned) [Ex-6.9, (1R, 3S or 1S,3R, or 1R,3S, or 1S,3S)-N-(6-(4-((3R, 4R or 3S,4S)-4-hydroxy-3-methyltetrahydrofuran-3-yl)piperazin-1-yl)-7-methylisoquinolin-3-yl)-5-oxaspiro[2.4]heptane-1-carboxamide]
- IC50: 324 nM

Compound: Cc1cc2cnc(NC(=O)C3CC3c3ccccn3)cc2cc1N1CCN(C2(C)COCC2F)CC1 (single isomer, unassigned) [Ex-6.13]
- IC50: 0.0813 nM

Compound: Cc1cc2cnc(NC(=O)C3CC3c3ccccn3)cc2cc1N1CCN(C2(C)COCC2F)CC1 (single isomer, unassigned) [Ex-6.14]
- IC50: 0.148 nM

Compound: COC1CC(C(=O)Nc2cc3cc(N4CCN(C5(C)COCC5O)CC4)c(Cl)cc3cn2)C1 (single isomer, unassigned) [Ex-7.1]
- IC50: 0.832 nM

Compound: COC1CC(C(=O)Nc2cc3cc(N4CCN(C5(C)COCC5O)CC4)c(Cl)cc3cn2)C1 (single isomer, unassigned) [Ex-7.2]
- IC50: 0.977 nM

Compound: CC1(C)CC2(CCO1)CC2C(=O)Nc1cc2cc(N3CCN(C4(C)COCC4O)CC3)c(Cl)cc2cn1 (single isomer, unassigned) [Ex-7.3]
- IC50: 3.72 nM

Compound: CC1(C)CC2(CCO1)CC2C(=O)Nc1cc2cc(N3CCN(C4(C)COCC4O)CC3)c(Cl)cc2cn1 (single isomer, unassigned) [Ex-7.4]
- IC50: 0.776 nM

Compound: CC1(C)CC2(CCO1)CC2C(=O)Nc1cc2cc(N3CCN(C4(C)COCC4O)CC3)c(Cl)cc2cn1 (single isomer, unassigned) [Ex-7.5]
- IC50: 0.155 nM

Compound: CC1C(C(=O)Nc2cc3cc(N4CCN(C5(C)CCOC5)CC4)c(Cl)cc3cn2)C1c1cnn(C)c1 (single isomer, unassigned) [Ex-9.7]
- IC50: 0.0813 nM

Compound: CC1C(C(=O)Nc2cc3cc(N4CCN(C5(C)CCOC5)CC4)c(Cl)cc3cn2)C1c1cnn(C)c1 (single isomer, unassigned) [Ex-9.8]
- IC50: 4.9 nM

Compound: CC1C(C(=O)Nc2cc3cc(N4CCN(C5(C)CCOC5)CC4)c(Cl)cc3cn2)C1c1cnn(C)c1 (single isomer, unassigned) [Ex-9.9]
- IC50: 0.417 nM

Compound: CCC1C(C(=O)Nc2cc3cc(N4CCN(C5(C)CCOC5)CC4)c(Cl)cc3cn2)C1c1cnn(C)c1 (single isomer, unassigned) [Ex-9.10]
- IC50: 0.0813 nM

Compound: CCC1C(C(=O)Nc2cc3cc(N4CCN(C5(C)CCOC5)CC4)c(Cl)cc3cn2)C1c1cnn(C)c1 (single isomer, unassigned) [Ex-9.11]
- IC50: 1.15 nM

Compound: Cc1cc2cnc(NC(=O)C3C(C)C3c3cnn(C)c3)cc2cc1N1CCN(C2(C)CCOC2)CC1 (single isomer, unassigned) [Ex-9.12]
- IC50: 0.0813 nM

Compound: Cc1cc2cnc(NC(=O)C3C(C)C3c3cnn(C)c3)cc2cc1N1CCN(C2(C)CCOC2)CC1 (single isomer, unassigned) [Ex-9.13]
- IC50: 11.5 nM

Compound: Cc1cc2cnc(NC(=O)C3C(C)C3c3cnn(C)c3)cc2cc1N1CCN(C2(C)CCOC2)CC1 (single isomer, unassigned) [Ex-9.14]
- IC50: 0.0813 nM

Compound: Cc1cc2cnc(NC(=O)C3C(C)C3c3cnn(C)c3)cc2cc1N1CCN(C2(C)CCOC2)CC1 (single isomer, unassigned) [Ex-9.15]
- IC50: 0.316 nM

Compound: Cc1cc2cnc(NC(=O)C3CC3c3ccccn3)cc2cc1N1CCN(C2(C)CCOC2)CC1 (single isomer, unassigned) [Ex-9.16]
- IC50: 1.12 nM

Compound: Cc1cc2cnc(NC(=O)C3CC3c3ccccn3)cc2cc1N1CCN(C2(C)CCOC2)CC1 (single isomer, unassigned) [Ex-9.17]
- IC50: 1.29 nM

Compound: Cc1cc2cnc(NC(=O)C3CC3c3ccccn3)cc2cc1N1CCN(C2(C)CCOC2)CC1 (single isomer, unassigned) [Ex-9.18]
- IC50: 100 nM

Compound: CC1(N2CCN(c3cc4cc(NC(=O)C5CCC(F)(F)CO5)ncc4cc3Cl)CC2)COCC1O (single isomer, unassigned) [Ex-10.1, (2R or 2S)-N-(7-chloro-6-((3R, 4R or 3S, 4S)-4-(4-hydroxy-3-methyltetrahydrofuran-3-yl)piperazin-1-yl)isoquinolin-3-yl)-5,5-difluorotetrahydro-2H-pyran-2-carboxamide]
- IC50: 0.933 nM

Compound: CC1(N2CCN(c3cc4cc(NC(=O)C5CCC(F)(F)CO5)ncc4cc3Cl)CC2)COCC1O (single isomer, unassigned) [Ex-10.2, (2R or 2S)-N-(7-chloro-6-((3R, 4R or 3S, 4S)-4-(4-hydroxy-3-methyltetrahydrofuran-3-yl)piperazin-1-yl)isoquinolin-3-yl)-5,5-difluorotetrahydro-2H-pyran-2-carboxamide]
- IC50: 0.676 nM

Compound: CC1(N2CCN(c3cc4cc(NC(=O)C5CCCOC5)ncc4cc3Cl)CC2)COCC1O (single isomer, unassigned) [Ex-10.3, (3R or 3S)-N-(7-chloro-6-(4-((3R, 4R or 3S, 4S)-4-hydroxy-3-methyltetrahydrofuran-3-yl)piperazin-1-yl)isoquinolin-3-yl)tetrahydro-2H-pyran-3-carboxamide]
- IC50: 1.58 nM

Compound: CC1(N2CCN(c3cc4cc(NC(=O)C5CCCOC5)ncc4cc3Cl)CC2)COCC1O (single isomer, unassigned) [Ex-10.4, (3R or 3S)-N-(7-chloro-6-(4-((3R, 4R or 3S, 4S)-4-hydroxy-3-methyltetrahydrofuran-3-yl)piperazin-1-yl)isoquinolin-3-yl)tetrahydro-2H-pyran-3-carboxamide]
- IC50: 1.38 nM

Compound: CC(C)(O)C1CC1C(=O)Nc1cc2cc(N3CCN(C4(C)COCC4O)CC3)c(Cl)cc2cn1 (single isomer, unassigned) [Ex-10.5]
- IC50: 4.79 nM

Compound: CC(C)(O)C1CC1C(=O)Nc1cc2cc(N3CCN(C4(C)COCC4O)CC3)c(Cl)cc2cn1 (single isomer, unassigned) [Ex-10.6]
- IC50: 0.141 nM

Compound: CCOC1CC1C(=O)Nc1cc2cc(N3CCN(C4(C)COCC4O)CC3)c(Cl)cc2cn1 (single isomer, unassigned) [Ex-10.11]
- IC50: 0.851 nM

Compound: CCOC1CC1C(=O)Nc1cc2cc(N3CCN(C4(C)COCC4O)CC3)c(Cl)cc2cn1 (single isomer, unassigned) [Ex-10.12]
- IC50: 0.0832 nM

Compound: CC1(N2CCN(c3cc4cc(NC(=O)C5CC5c5cccs5)ncc4cc3Cl)CC2)COCC1O (single isomer, unassigned) [Ex-10.13, (1R,2R or 1R,2S)-N-[7-chloro-6-[4-((3R,4R or 3S,4S)-4-hydroxy-3-methyl-tetrahydrofuran-3-yl)piperazin-1-yl]-3-isoquinolyl]-2-(2-thienyl)cyclopropanecarboxamide]
- IC50: 0.0813 nM
